This is an account of results in patent US9328138B2 (priority 2011, dated 2016).

Test [1] concerns the target HCV NS3 protease genotype 3a (3A-1) (Hepatitis C virus genotype 3a, UniProt Q81258). Put plainly: HCV NS3 protease time-resolved fluorescence (TRF) assay, genotype 3a. Type of test: biochemical. As to conditions: Ki 3a. The gist of the method:
(§1)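 Pre-incubation of NS3/NS4A protease with inhibitor for 10 min in pH 7.5 HEPES buffer with 10 mM DTT; 25 nM TRF peptide substrate, hydrolysis 6 h at room temperature. Fluorescence read at ex 340/em 615 nm with 400 μs delay, enzyme level set for S/B 5-20; IC50 by four-parameter fit.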

The target in test [2] is T1, HCV genotype 1b (BK) NS3 modified enzyme with a R155K mutation (Hepatitis C virus genotype 1b, UniProt P26663, R1181K).
T1 construct: HCV genotype 1b (BK) NS3 modified enzyme
The experiment in a line: HCV NS3 protease time-resolved fluorescence (TRF) assay, genotype 1b R155K. In kind it is biochemical. As to conditions: Ki 1b R155K. The gist of the method: as §1

Setting [3] is: genotype 1b (BK) NS3 R155K, single value.
[4] abbreviates: first of two values printed in the cell (not explained).
The mark [5] stands for this setting: second of two values printed in the cell (not explained).

Molecules are shown by their SMILES. Counter-ions that a name gives are not always drawn.

Usually Ki stands for a measure of affinity in units of concentration, obtained from inhibition or displacement. Low readings indicate higher affinity, high ones lower affinity.

In the case of `C=C[C@@H]1C[C@]1(NC(=O)[C@@H]1C[C@@H]2CN1C(=O)[C@H](C(C)(C)C)NC(=O)O[C@@H]1C[C@H]1CCCCCc1c(nc3ccccc3c1OC1CN(CC3CC3)C1)O2)C(=O)NS(=O)(=O)C1(C)CC1` [Example 223, (1aR,5S,8S,10R,22aR)-5-tert-butyl-17-{[1-(cyclopropylmethyl)azetidin-3-yl]oxy}-N-[(1R,2S)-2-ethenyl-1-{[(1-methylcyclopropyl)sulfonyl]carbamoyl}cyclopropyl]-3,6-dioxo-1,1a,3,4,5,6,9,10,18,19,20,21,22,22a-tetradecahydro-8H-7,10-methanocyclopropa[18,19][1,10,3,6]dioxadiazacyclononadecino[11,12-b]quinoline-8-carboxamide], the Ki in test [1] was 1.2 nM; in test [2] (setting [3]), 0.055 nM.
In the same order, the values of `C=C[C@@H]1C[C@]1(NC(=O)[C@@H]1C[C@@H]2CN1C(=O)[C@H](C1CCCC1)NC(=O)O[C@@H]1CCC[C@H]1CC/C=C/Cc1c(nc3ccc(Br)cc3c1O)O2)C(=O)NS(=O)(=O)C1CC1` [Example 22, (3aR,7S,10S,12R,21E,24aS)-17-bromo-7-cyclopentyl-N-{(1R,2S)-1-[(cyclopropylsulfonyl)carbamoyl]-2-ethenylcyclopropyl}-19-hydroxy-5,8-dioxo-1,2,3,3a,5,6,7,8,11,12,20,23,24,24a-tetradecahydro-10H-9,12-methanocyclopenta[18,19][1,10,3,6]dioxadiazacyclononadecino[11,12-b]quinoline-10-carboxamide] are 9.3 nM and 0.33 nM.
`C=C[C@@H]1C[C@]1(NC(=O)[C@@H]1C[C@@H]2CN1C(=O)[C@H](C(C)(C)C)NC(=O)O[C@@H]1C[C@H]1CCCCCc1c(nc3ccccc3c1OC1C3COCC1CN(C(=O)OC(C)(C)C)C3)O2)C(=O)NS(=O)(=O)C1(C)CC1` (single isomer, unassigned) [Example 254]: the results for the Ki in test [1], in test [2] (setting [4]) and in test [2] (setting [5]) were 47.5 nM, 0.116 nM and 2.3 nM, respectively.
For the compound `C=C[C@@H]1C[C@]1(NC(=O)[C@@H]1C[C@@H]2CN1C(=O)[C@H](C1CCCCC1)NC(=O)O[C@@H]1C[C@H]1CCCCCc1c(nc3ccccc3c1OCCCNC1CCC1)O2)C(=O)NS(=O)(=O)C1(C)CC1` [Example 242, N-(3-{[(1aR,5S,8S,10R,22aR)-5-cyclohexyl-8-{[(1R,2S)-2-ethenyl-1-{[(1-methylcyclopropyl)sulfonyl]carbamoyl}cyclopropyl]carbamoyl}-3,6-dioxo-1,1a,3,4,5,6,9,10,18,19,20,21,22,22a-tetradecahydro-8H-7,10-methanocyclopropa[18,19][1,10,3,6]dioxadiazacyclononadecino[11,12-b]quinolin-17-yl]oxy}propyl)cyclobutanaminium formate], the Ki in test [1] was 0.935 nM; in test [2] (setting [4]), 0.013 nM; in test [2] (setting [5]) it was 0.072 nM.
For the compound `C=C[C@@H]1C[C@]1(NC(=O)[C@@H]1C[C@@H]2CN1C(=O)[C@H](C1CCCCC1)NC(=O)O[C@@H]1C[C@H]1CCCCCc1c(nc3ccccc3c1OCCCN1CCOCC1)O2)C(=O)NS(=O)(=O)C1(C)CC1` [Example 240, 4-(3-{[(1aR,5S,8S,10R,22aR)-5-cyclohexyl-8-{[(1R,2S)-2-ethenyl-1-{[(1-methylcyclopropyl)sulfonyl]carbamoyl}cyclopropyl]carbamoyl}-3,6-dioxo-1,1a,3,4,5,6,9,10,18,19,20,21,22,22a-tetradecahydro-8H-7,10-methanocyclopropa[18,19][1,10,3,6]dioxadiazacyclononadecino[11,12-b]quinolin-17-yl]oxy}propyl)morpholin-4-ium formate], the Ki came to 2.9 nM in test [1], 0.019 nM in test [2] (setting [4]) and 0.28 nM in test [2] (setting [5]).
Turning to `C=C[C@@H]1C[C@]1(NC(=O)[C@@H]1C[C@@H]2CN1C(=O)[C@H](C(C)(C)C)NC(=O)O[C@@H]1C[C@H]1CCCCCc1c(nc3ccccc3c1OCCCNC1CCCc3ccccc31)O2)C(=O)NS(=O)(=O)C1(C)CC1` (stereo partly drawn) [Example 204, (1aR,5S,8S,10R,22aR)-5-tert-butyl-N-[(1R,2S)-2-ethenyl-1-{[(1-methylcyclopropyl)sulfonyl]carbamoyl}cyclopropyl]-3,6-dioxo-17-[3-(1,2,3,4-tetrahydronaphthalen-1-ylamino)propoxy]-1,1a,3,4,5,6,9,10,18,19, 20,21,22,22a-tetradecahydro-8H-7,10-methanocyclopropa[18,19][1,10,3,6] dioxadiazacyclononadecino[11,12-b] quinoline-8-carboxamide], the results for the Ki in test [1] and in test [2] (setting [3]) were 2.4 nM and 0.15 nM, respectively.
Regarding `C=C[C@@H]1C[C@]1(NC(=O)[C@@H]1C[C@@H]2CN1C(=O)[C@H](C1CCCC1)NC(=O)N1CC[C@@H](C1)OCCCCCCc1c(nc3ccccc3c1OCC)O2)C(=O)NS(=O)(=O)C1CC1` [Example 33, (2R,4S,7S,13S)-7-cyclopentyl-N-{(1R,2S)-1-[(cyclopropylsulfonyl)carbamoyl]-2-ethenylcyclopropyl}-21-ethoxy-6,9-dioxo-3,4,6,7,8,9,12, 13,15,16,17,18,19,20-tetradecahydro-2H,11H-2,5:10,13-dimethano[1,14,5,7,10]dioxatriazacyclo docosino[15,16-b]quinoline-4-carboxamide], the Ki came out at 22 nM in test [1] and 0.32 nM in test [2] (setting [3]).
In the same order, the values of `C=C[C@@H]1C[C@]1(NC(=O)[C@@H]1C[C@@H]2CN1C(=O)[C@H](C(C)(C)C)NC(=O)O[C@@H]1C[C@H]1CCCCCc1c(nc3ccccc3c1OCCc1ccncc1)O2)C(=O)NS(=O)(=O)C1(C)CC1` [Example 219, (1aR,5S,8S,10R,22aR)-5-tert-butyl-N-[(1R,2S)-2-ethenyl-1-{[(1-methylcyclopropyl)sulfonyl]carbamoyl}cyclopropyl]-3,6-dioxo-17-[2-(pyridine-4-yl)ethoxy]-1,1a,3,4,5,6,9,10,18,19,20,21,22,22a-tetradecahydro-8H-7,10-methanocyclopropa[18,19][1,10,3,6] dioxadiazacyclononadecino[11,12-b]quinoline-8-carboxamide] are 1.9 nM and 0.12 nM.
On the same counts, the results for `C=C[C@@H]1C[C@]1(NC(=O)[C@@H]1C[C@@H]2CN1C(=O)[C@H](C1CCCC1)NC(=O)O[C@@H]1CCC[C@H]1CCCCCc1c(nc3ccccc3c1OCCN1CC3CCC1C3)O2)C(=O)NS(=O)(=O)C1CC1` [Example 60, (3aR,7S,10S,12R,24aR)-19-[2-(2-azabicycle [2.2.1]hept-2-yl)ethoxy]-7-cyclo pentyl-N-{(1R,2S)-1-[(cyclopropylsulfonyl)carbamoyl]-2-ethenylcyclopropyl}-5,8-dioxo-1,2,3,3a,5,6,7,8,11,12,20,21,22,23,24,24a-hexadecahydro-10H-9,12-methanocyclopenta [18,19][1,10,3,6]dioxadiazacyclononadecino [11,12-b]quinoline-10-carboxamide] are 12 nM and 0.61 nM.
On to `C=C[C@@H]1C[C@]1(NC(=O)[C@@H]1C[C@@H]2CN1C(=O)[C@H](C(C)(C)C)NC(=O)O[C@@H]1C[C@H]1CCCCCc1c(nc3c(OC)cccc3c1OCCCN1CC3(COC3)C1)O2)C(=O)NS(=O)(=O)C1(C)CC1` [Example 153, (1aR,5S,8S,10R,22aR)-5-tert-butyl-N-[(1R,2S)-2-ethenyl-1-{[(1-methylcyclopropyl)sulfonyl]carbamoyl}cyclopropyl]-13-methoxy-17-[3-(2-oxa-6-azaspiro[3.3]hept-6-yl)propoxy]-3,6-dioxo-1,1a, 3,4,5,6,9,10,18,19,20,21,22,22a-tetradeca hydro-8H-7,10-methanocyclopropa[18,19][1,10,3,6] dioxadiazacyclononadecino [11,12-b]quinoline-8-carboxamide], for which the Ki came out at 0.61 nM in test [1] and 0.059 nM in test [2] (setting [3]).
For `C=C[C@@H]1C[C@]1(NC(=O)[C@@H]1C[C@@H]2CN1C(=O)[C@H](C(C)(C)C)NC(=O)O[C@@H]1C[C@H]1CCCCCc1c(nc3ccccc3c1OCCCN1CCNC(C(F)(F)F)C1)O2)C(=O)NS(=O)(=O)C1(C)CC1` (stereo partly drawn) [Example 205, (1aR,5S,8S,10R,22aR)-5-tert-butyl-N-[(1R,2S)-2-ethenyl-1-{[(1-methylcyclopropyl)sulfonyl]carbamoyl}cylcopropyl]-3,6-dioxo-17-{3-[3-(trifluoromethyl)piperazin-1-yl]propoxy}-1,1a,3,4,5,6,9,10,18, 19,20,21,22,22a-tetradecahydro-8H-7,10-methanocyclopropa[18,19][1,10,3,6] dioxadiazacyclononadecino[11,12-b] quinoline-8-carboxamide], the figures for the Ki in test [1] and in test [2] (setting [3]) were 1.9 nM and 0.19 nM, respectively.
On the same counts, the results for `C=C[C@@H]1C[C@]1(NC(=O)[C@@H]1C[C@@H]2CN1C(=O)[C@H](C(C)(C)C)NC(=O)O[C@@H]1C[C@H]1CCCCCc1c(nc3cc(C(C)C)ccc3c1OCCCN1CCCC1)O2)C(=O)NS(=O)(=O)C1(C)CC1` [Example 159, (1aR,5S,8S,10R,22aR)-5-tert-butyl-N-[(1R,2S)-2-ethenyl-1-{[(1-methylcyclopropyl)sulfonyl]carbamoyl}cyclopropyl]-3,6-dioxo-14-(propan-2-yl)-17-[3-(pyrrolidin-1-yl)propoxy]-1,1a,3,4,5,6,9, 10,18,19,20,21,22,22a-tetradecahydro-8H-7,10-methanocyclopropa[18,19] [1,10,3,6]dioxadiazacyclononadecino [11,12-b]quinoline-8-carboxamide] are 0.53 nM and 0.05 nM.
